Legend:
[1] = target: T1, human LXRalpha LBD (Homo sapiens, UniProt Q13133, A196R); experiment: In vitro screening for LXR binding to coactivator Tif2 (LANCE TR-FRET); type: biochemical
T1 construct: from amino acids 155 of hLXRalpha to 447; made in house; host or cells: SF9 insect cells (baculovirus) for LXRalpha LBD; E. coli BL21 for Tif2 fragment
T1 sequence (Q13133 155-447 A196R): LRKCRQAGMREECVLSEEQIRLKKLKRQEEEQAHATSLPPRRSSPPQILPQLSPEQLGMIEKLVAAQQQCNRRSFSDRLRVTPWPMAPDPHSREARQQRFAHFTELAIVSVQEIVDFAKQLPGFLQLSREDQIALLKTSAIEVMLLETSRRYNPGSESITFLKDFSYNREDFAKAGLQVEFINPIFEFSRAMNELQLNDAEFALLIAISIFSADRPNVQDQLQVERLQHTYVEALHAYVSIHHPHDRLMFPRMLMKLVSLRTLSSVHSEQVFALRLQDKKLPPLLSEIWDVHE
T1 sequence (Q15596 548-878 partner limits assumed): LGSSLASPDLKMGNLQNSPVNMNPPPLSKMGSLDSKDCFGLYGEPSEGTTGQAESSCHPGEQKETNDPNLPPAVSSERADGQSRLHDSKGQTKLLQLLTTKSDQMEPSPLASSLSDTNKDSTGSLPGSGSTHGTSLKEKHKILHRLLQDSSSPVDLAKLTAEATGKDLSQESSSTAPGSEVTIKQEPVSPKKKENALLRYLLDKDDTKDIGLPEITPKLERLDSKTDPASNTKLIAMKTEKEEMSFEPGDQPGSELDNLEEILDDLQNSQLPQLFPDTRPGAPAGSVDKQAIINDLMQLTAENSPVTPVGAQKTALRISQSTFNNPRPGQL
Excerpt: For screening purposes a GST and 6× His fusion of the LBD (from amino acids 155 of hLXRalpha to 447) of human LXRalpha was constructed by first cloning a Gateway cassette (Invitrogen) in frame into the Sma I site of the pAGGHLT Polylinker (Pharmingen). Then a PCR fragment specifically amplified from human liver cDNA was cloned into the resulting pACGHLT-GW following the manufacturers instructions for Gateway cloning (Invitrogen) to yield pACGHLT-GW-hLXRalphaLBD.
100% sequence integrity of all recombinant products was verified by sequencing. Recombinant Baculovirus was constructed from pACGHLT-GW-hLXRalphaLBD using the Pharmingen Baculovirus Expression vector system according to instructions of the manufacturer. Monolayer cultures of SF9 cells were infected by the virus as recommended by Pharmingen or 200 ml cultures of 1×10^6 cells/ml grown in 2 liter Erlenmeyer flasks on an orbital shaker at 30 rpm were infected by 10 ml of same virus stock. In both cases cells were harvested 3 days after infection. All cell growth was performed in Gibco SF900 II with Glutamine (Invitrogen) medium without serum supplementation at 28° C. Since SF9 cells contain significant amounts of endogenous 30 GST, purification was performed via His and not via GST affinity chromatography.
To this end instructions of Pharmingen for purification of recombinant His tagged proteins from SF9 cells were followed with the following modifications: All detergents were omitted from the buffers and cells were lysed on ice by 5 subsequent sonication pulses using a sonicator needle at maximum power.
All eluates were dialyzed against 20 mM Tris/HCl pH 6.8, 300 mM KCl; 5 mM MgCl2;1 mM DTT; 0.2 mM PMSF; 10% Glycerol. A typical dialyzed eluate fraction contained the fusion protein at a purity of more than 80%. Total protein concentration was 0.1-0.3 mg/ml.
For E. coli expression of a NR coactivator, pDest17-hTif2BD expressing an NR interaction domain from amino acids 548-878 of human Tif2 (Acc. No: XM011633 Ref Seq) tagged by 6 N-terminal His residues was constructed. Therefore, a PCR fragment specifically amplified from human liver cDNA was subcloned into pDest 17 (Invitrogen) following the manufacturers instructions for Gateway cloning (Invitrogen). Primers used for Amplification were: […]
For E. coli expression plasmid DNA was transformed into chemically competent E. coli BL21 (Invitrogen, USA) and cells were grown to an OD600 of 0.4-0.7 before expression was induced by addition of 0.5 mM IPTG according instructions of the manufacturer (Invitrogen). After induction for 8 hours at 30° C. cells were harvested by centrifugation for 10 minutes at 5000×g. Fusion proteins were affinity purified using Ni—NTA Agarose (QIAGEN) according to the instructions of the manufacturer.
Recombinant Tif2 construct was dialyzed against 20 mM Tris/HCL pH 7.9; 60 mM KCl; 5 mM MgCl2; 1 mM DTT, 0.2 mM PMSF; 10% glycerol. A typical dialyzed eluate fraction contained the fusion protein at a purity of more than 80%. Total protein concentration was 0.1-0.3 mg/ml.
The TIF2 fragment was subsequently biotinylated by addition of 5-40 ul/ml Tif2 fraction of a Biotinamidocaproate N-Hydroxysuccinimide-ester (Sigma) solution (20 mg/ml in DMSO). Overhead rotating samples were incubated for 2 hours at room temperature. Unincorporated label was then separated using G25 Gel filtration chromatography (Pharmacia Biotech, Sweden). Protein containing fractions from the column were pooled and tested for activity in the assay as described below.
For screening of compound libraries as provided for by the methods shown below in the examples for substances which influence the LXR/Tif 2 interaction, the PerkinElmer LANCE technology is applied. This method relies on the binding dependent energy transfer from a donor to an acceptor fluorophore attached to the binding partners of interest. […]

[2] = target: T2, Gal4DBD-LXRb (Homo sapiens, UniProt P55055); experiment: pFR-luc reporter transactivation in CHO cells, Gal4DBD-LXRb; type: cell-based; details: 16 h, 0.032 to 50 uM
T2 construct: expressed in transfected cells; host or cells: CHO
T2 sequence (P55055 222-460 limits assumed): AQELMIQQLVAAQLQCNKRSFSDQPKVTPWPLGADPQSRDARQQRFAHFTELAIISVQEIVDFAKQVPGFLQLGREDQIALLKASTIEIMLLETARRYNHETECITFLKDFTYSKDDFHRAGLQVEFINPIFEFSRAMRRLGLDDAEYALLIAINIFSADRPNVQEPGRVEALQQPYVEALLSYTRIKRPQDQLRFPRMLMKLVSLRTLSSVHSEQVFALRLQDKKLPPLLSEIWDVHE
Procedure: (§1) CHO cells (1×10^5 cells 96 well plate) were co-transfected (Lipofectamine 2000 GIBCO) with pFR-luc (Stratagene) as a reporter gene construct and pCMV-AD derivatives containing the LXRa or LXRb ligand binding domains, which were cloned via the gateway system (GIBCO) described in Example 1, in order to express Gal4DBD-LXRa or Gal4DBD-LXRb fusion proteins.
(§2) Cells were grown in DMEM containing 10% FCS at 37° C. in 5% humidified CO2 for 16 h in presence of 0.05% DMSO vehicle or 0.032 to 50 uM LN0000006500 in vehicle (as indicated in FIG. 9). Luciferase activity was determined from aliquots of extracts prepared from cells following standard luciferase assay kits and protocols from Promega.

[3] = tested on: HepG2 liver cells; experiment: Triglyceride assay in HepG2 cells; type: cell-based; details: 24 h, 25 pM
Procedure: Methods: Cultures of the monocyte-macrophage cell line and the hepatocytes HepG2 are obtained from the American Type tissue Culture Collection, Rockville, Md. and were grown in RPMI 1640 medium supplemented with 10% fetal bovine serum, 10 mM HEPES, 2 mM pyruvate, 50 uM (3-Mercaptoethanol (THP-1) and Minimum essential medium (Eagle) with 2 mM L-glutamine and Earle's BSS supplemented with 10% fetal bovine serum, 2 mM glutamin, 0.1 mM non-essential amino acids, 1 mM sodium pyruvate (HepG2), respectively, at 37° C. in 5% CO2.
For cholesterol efflux measurements and triglyceride analysis cells are seeded in 6 well plates at 1.8×10^6 cells (THP-1) and 1×10^6 cells (HepG2) per well, respectively.
TRIGLYCERIDE ASSAY HepG2 cells are seeded in poly-L-Lysine coated 6 well plates at 1×10^6 cells per well in EMEM medium containing 10% FCS until they were appr. 60% confluent. Before treatment with LXR compounds growth medium is changed to medium containing 10% charcoal/dextran-stripped FCS for 12 h. Treatment is done for 24 h in medium containing 10% charcoal/dextran-stripped FCS. Cells are washed twice with ice-cold PBS/0.2% BSA and twice with cold PBS and all liquid carefully removed. Triglyceride are extracted with 1.5 ml hexane/isopropanol=3: 2 per well with gentle shaking for 2-3 h at RT according to Pan et al. (2002) JBC277, 4413-4421 and Goti et al. (1998) Biochem J, 332, 57-65. The extraction solution is collected, dried under vacuum and redissolved in isopropanol/1.5% triton. The remaining cellular proteins are lysed with 0.3 N NaOH and protein content measured with the Biorad Bradford reagent.
Triglyceride levels are measured as esterified glycerol using a commercial enzymatic colorimetric kit (Sigma 343-25P). In a preliminary assay it is checked by omitting the lipase enzyme that contribution of free glycerol is negligible.

[4] = target: T3, Gal4DBD-LXRa (Homo sapiens, UniProt Q13133); experiment: pFR-luc reporter transactivation in CHO cells, Gal4DBD-LXRa; type: cell-based; details: 16 h, 0.032 to 50 uM
T3 construct: expressed in transfected cells; host or cells: CHO
T3 sequence (Q13133 209-447 limits assumed): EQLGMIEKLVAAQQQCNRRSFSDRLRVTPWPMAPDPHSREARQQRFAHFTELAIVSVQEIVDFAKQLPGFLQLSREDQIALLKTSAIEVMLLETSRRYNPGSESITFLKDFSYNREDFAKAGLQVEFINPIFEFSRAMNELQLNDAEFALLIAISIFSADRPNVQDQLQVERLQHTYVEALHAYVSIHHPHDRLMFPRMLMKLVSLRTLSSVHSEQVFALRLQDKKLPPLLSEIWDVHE
Procedure: as §1, §2

[5] = tested on: THP-1 macrophages; experiment: Cholesterol efflux from differentiated THP-1 macrophages; type: cell-based; details: ApoA1, 10 uM, 24 h
Procedure: Methods: Cultures of the monocyte-macrophage cell line and the hepatocytes HepG2 are obtained from the American Type tissue Culture Collection, Rockville, Md. and were grown in RPMI 1640 medium supplemented with 10% fetal bovine serum, 10 mM HEPES, 2 mM pyruvate, 50 uM (3-Mercaptoethanol (THP-1) and Minimum essential medium (Eagle) with 2 mM L-glutamine and Earle's BSS supplemented with 10% fetal bovine serum, 2 mM glutamin, 0.1 mM non-essential amino acids, 1 mM sodium pyruvate (HepG2), respectively, at 37° C. in 5% CO2. THP-1 cells are differentiated into macrophages by addition of 100 nM Phorbol 12-Myristate 13-Acetate (PMA; Sigma P8139) and PMA included in the medium of all subsequent experiments to maintain differentiation. For cholesterol efflux measurements and triglyceride analysis cells are seeded in 6 well plates at 1.8×10^6 cells (THP-1) and 1×10^6 cells (HepG2) per well, respectively. CHOLESTEROL EFFLUX THP-1 cells are seeded in 6 well plates at 1×10^6 cells per well in RPMI 1640 medium containing 10% FCS and 100 nM TPA for 72 h. After washing with PBS cells are incubated 24 h with fresh in RPMI 1640 medium containing 10% FCS and 100 nM TPA. […] Medium is collected, centrifuged to remove cell debris and assayed for cholesterol using a commercial fluorometric kit (Molecular Probes A-12216). The remaining cellular proteins are lysed with 0.3 NNaOH and protein content measured with the Biorad Bradford reagent. THP-1 (1×10^6 cells per dish) cells were seeded in 6 well dishes in 3 ml modified RPMI 1640 medium (ATTC, Cat. […] After incubation for 24 hours, total cholesterol was determined from cell supernatant in each of the wells using an enzymatic assay with fluorescence read-out for the determination of cholesterol (Amplex Red Cholesterol Assay Kit (A-12213). The fluorescence readout per mg of total protein content as determined from cells that were present in the respective well are shown in FIGS. 9 or 11 as an example.

C=CCn1c(N2CC3(C)CC2CC(C)(C)C3)nc2ccccc2c1=O (stereo not drawn) [formula (4)]
EC50 ([1]; FRET assay, read-out: EC50 at LXR (half-maximal effective concentration)): 500 nM

O=S(=O)(c1ccccc1)N(CC(F)(F)F)c1ccc(C(O)(C(F)(F)F)C(F)(F)F)cc1 [T0901317, reference compound]
transactivation of the pFR-luc reporter gene via Gal4 LBD-fusion construct derived from LXRb [2]: can selectively enhance transcription
triglyceride mass [3]: marked increase
transactivation of the pFR-luc reporter gene via Gal4 LBD-fusion construct derived from LXRa [4]: can selectively enhance transcription
cholesterol export [5]: marked increase

CC(C)n1c(N2CC3(C)CC2CC(C)(C)C3)nc2ccc(Br)cc2c1=O (stereo not drawn) [formula (6)]
active as agonist / partial agonist of the LXR human nuclear receptor [1]: active as agonist

Source: patent US20050261319A1, “Novel 2-amino-4-quinazolinones and 2-amino-4-oxoquinazolones as LXR nuclear receptor binding compounds with partial agonistic properties” (priority 2002, published 2005)
